Reference: ChEMBL document CHEMBL1201862, “PubChem BioAssay data set” (2004)
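Assay format: 96-well plates, 48-hour exposure. GI50 = concentration required for 50% inhibition of growth.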 Calls of active or inactive are those of the source. Rule as the data show it: active = GI50 up to about 1.1 µM and inactive = higher.

Experiments:
Assay in all cases: NCI-60 cell line screen, 48 h
HT-29 = tested on: HT-29
HCT-15 = tested on: HCT-15
U-251 = tested on: U-251
NCI-H522 = tested on: NCI-H522
A498 = tested on: A498
UACC-62 = tested on: UACC-62
COLO 205 = tested on: COLO 205
HL-60 = tested on: HL-60
RXF 393 = tested on: RXF 393
SF-268 = tested on: SF-268
UACC-257 = tested on: UACC-257
SF-539 = tested on: SF-539
SK-MEL-2 = tested on: SK-MEL-2
OVCAR-4 = tested on: OVCAR-4
CAKI-1 = tested on: CAKI-1

O=C(O/N=C1/CCCC/C1=C\c1ccccc1)c1ccccc1
GI50 (HT-29): 40 µM (inactive)
GI50 (HCT-15): 84.3 µM
GI50 (U-251): 92.7 µM (inactive)
GI50 (NCI-H522): 27.7 µM (inactive)
GI50 (A498): 0.178 µM (active)
GI50 (UACC-62): > 100 µM (inactive)
GI50 (COLO 205): > 100 µM (inactive)
GI50 (HL-60): 20.2 µM (inactive)
GI50 (RXF 393): > 100 µM (inactive)
GI50 (SF-268): 33.3 µM (inactive)
GI50 (UACC-257): > 100 µM (inactive)
GI50 (SF-539): > 100 µM (inactive)
GI50 (SK-MEL-2): > 100 µM (inactive)

O=c1[nH]cc(COCC(O)CO)c(=O)[nH]1 (stereo not drawn)
GI50 (HT-29): > 100 µM (inactive)
GI50 (HCT-15): > 100 µM
GI50 (U-251): > 100 µM (inactive)
GI50 (NCI-H522): > 100 µM (inactive)
GI50 (A498): > 100 µM (inactive)
GI50 (UACC-62): > 100 µM (inactive)
GI50 (COLO 205): > 100 µM (inactive)
GI50 (HL-60): > 100 µM (inactive)
GI50 (RXF 393): > 100 µM (inactive)
GI50 (OVCAR-4): > 100 µM (inactive)
GI50 (CAKI-1): > 100 µM (inactive)
GI50 (SF-268): > 100 µM (inactive)
GI50 (UACC-257): > 100 µM (inactive)
GI50 (SF-539): > 100 µM (inactive)
GI50 (SK-MEL-2): > 100 µM (inactive)

N#Cc1nc(Nc2ccc(Cl)cc2)sc1N
GI50 (HT-29): 19.7 µM (inactive)
GI50 (HCT-15): 7.18 µM
GI50 (U-251): 10.2 µM (inactive)
GI50 (NCI-H522): 3.01 µM (inactive)
GI50 (A498): 10.9 µM (inactive)
GI50 (UACC-62): 10.1 µM (inactive)
GI50 (COLO 205): 6.68 µM (inactive)
GI50 (HL-60): 4.92 µM (inactive)
GI50 (OVCAR-4): 24 µM (inactive)
GI50 (CAKI-1): 7.57 µM (inactive)
GI50 (SF-268): 5.47 µM (inactive)
GI50 (UACC-257): 10.2 µM (inactive)
GI50 (SF-539): 2.78 µM (inactive)
GI50 (SK-MEL-2): 15.1 µM (inactive)

CCOC(=O)c1s/c(=N\Nc2nc3ccccc3cc2C2OCCO2)n(Cc2ccccc2)c1C
GI50 (HT-29): > 100 µM (inactive)
GI50 (HCT-15): > 100 µM
GI50 (U-251): > 100 µM (inactive)
GI50 (NCI-H522): > 100 µM (inactive)
GI50 (A498): > 100 µM (inactive)
GI50 (UACC-62): > 100 µM (inactive)
GI50 (COLO 205): > 100 µM (inactive)
GI50 (HL-60): > 100 µM (inactive)
GI50 (RXF 393): > 100 µM (inactive)
GI50 (OVCAR-4): > 100 µM (inactive)
GI50 (CAKI-1): > 100 µM (inactive)
GI50 (SF-268): > 100 µM (inactive)
GI50 (UACC-257): > 100 µM (inactive)
GI50 (SF-539): > 100 µM (inactive)
GI50 (SK-MEL-2): > 100 µM (inactive)

Cc1c2ccnc(C(N)=O)c2c(C)c2c1[nH]c1ccccc12
GI50 (HT-29): 6.35 µM (inactive)
GI50 (HCT-15): 4.1 µM
GI50 (U-251): 8.51 µM (inactive)
GI50 (NCI-H522): 7.59 µM (inactive)
GI50 (A498): 8.18 µM (inactive)
GI50 (UACC-62): 4.92 µM (inactive)
GI50 (COLO 205): 5.07 µM (inactive)
GI50 (HL-60): 13.4 µM (inactive)
GI50 (RXF 393): 4.19 µM (inactive)
GI50 (OVCAR-4): 9.31 µM (inactive)
GI50 (CAKI-1): 3.83 µM (inactive)
GI50 (SF-268): 5.46 µM (inactive)
GI50 (UACC-257): 10.5 µM (inactive)
GI50 (SF-539): 6.76 µM (inactive)
GI50 (SK-MEL-2): 13.1 µM (inactive)

O=C1NC(=O)C(C(=O)C(=O)Nc2cccc(C(F)(F)F)c2)C(=O)N1
GI50 (HCT-15): > 100 µM
GI50 (U-251): > 100 µM (inactive)
GI50 (NCI-H522): > 100 µM (inactive)
GI50 (A498): > 100 µM (inactive)
GI50 (UACC-62): > 100 µM (inactive)
GI50 (COLO 205): > 100 µM (inactive)
GI50 (HL-60): > 100 µM (inactive)
GI50 (RXF 393): > 100 µM (inactive)
GI50 (OVCAR-4): > 100 µM (inactive)
GI50 (CAKI-1): > 100 µM (inactive)
GI50 (SF-268): > 100 µM (inactive)
GI50 (UACC-257): 53 µM (inactive)
GI50 (SF-539): > 100 µM (inactive)
GI50 (SK-MEL-2): > 100 µM (inactive)

CC1COS(=O)N1c1ccccc1 (stereo not drawn)
GI50 (HT-29): > 100 µM (inactive)
GI50 (HCT-15): > 100 µM
GI50 (U-251): > 100 µM (inactive)
GI50 (NCI-H522): > 100 µM (inactive)
GI50 (A498): > 100 µM (inactive)
GI50 (UACC-62): > 100 µM (inactive)
GI50 (COLO 205): > 100 µM (inactive)
GI50 (HL-60): > 100 µM (inactive)
GI50 (RXF 393): > 100 µM (inactive)
GI50 (OVCAR-4): > 100 µM (inactive)
GI50 (SF-268): > 100 µM (inactive)
GI50 (UACC-257): > 100 µM (inactive)
GI50 (SK-MEL-2): > 100 µM (inactive)

O=C1NC(=O)C(=Cc2c3ccccc3cc3ccccc23)C(=O)N1
GI50 (HT-29): 55.1 µM (inactive)
GI50 (HCT-15): > 100 µM
GI50 (U-251): > 100 µM (inactive)
GI50 (NCI-H522): > 100 µM (inactive)
GI50 (A498): > 100 µM (inactive)
GI50 (UACC-62): > 100 µM (inactive)
GI50 (COLO 205): > 100 µM (inactive)
GI50 (HL-60): 44.7 µM (inactive)
GI50 (RXF 393): > 100 µM (inactive)
GI50 (CAKI-1): 47.2 µM (inactive)
GI50 (SF-268): > 100 µM (inactive)
GI50 (SF-539): > 100 µM (inactive)

Nc1nc(SCCC/C=C/B(O)O)nc2c1ncn2C1OC(COP(=O)(O)O)C(O)C1O (stereo not drawn)
GI50 (HT-29): > 203 µM (inactive)
GI50 (HCT-15): > 203 µM
GI50 (U-251): > 203 µM (inactive)
GI50 (NCI-H522): 115 µM (inactive)
GI50 (A498): > 203 µM (inactive)
GI50 (UACC-62): > 203 µM (inactive)
GI50 (COLO 205): > 203 µM (inactive)
GI50 (HL-60): > 203 µM (inactive)
GI50 (OVCAR-4): > 203 µM (inactive)
GI50 (CAKI-1): > 203 µM (inactive)
GI50 (SF-268): > 203 µM (inactive)
GI50 (UACC-257): > 203 µM (inactive)
GI50 (SF-539): > 203 µM (inactive)
GI50 (SK-MEL-2): > 203 µM (inactive)

O=C(N/C(=C\c1ccc2c(c1)OCO2)c1nc2ccccc2[nH]1)c1ccccc1
GI50 (HT-29): 4.98 µM (inactive)
GI50 (HCT-15): 35.6 µM
GI50 (U-251): 32 µM (inactive)
GI50 (NCI-H522): 14.7 µM (inactive)
GI50 (A498): 33.1 µM (inactive)
GI50 (UACC-62): 20.9 µM (inactive)
GI50 (COLO 205): 25.1 µM (inactive)
GI50 (HL-60): 14.8 µM (inactive)
GI50 (RXF 393): 24.7 µM (inactive)
GI50 (OVCAR-4): 19.7 µM (inactive)
GI50 (CAKI-1): 33.6 µM (inactive)
GI50 (SF-268): 38.2 µM (inactive)
GI50 (UACC-257): 19.6 µM (inactive)
GI50 (SF-539): 24.9 µM (inactive)
GI50 (SK-MEL-2): 26.4 µM (inactive)

N#CCC(=O)N/N=C(/C(=O)Nc1ccccc1)C1C(=O)N(c2ccccc2)N=C1N (stereo not drawn)
GI50 (HT-29): > 100 µM (inactive)
GI50 (HCT-15): > 100 µM
GI50 (U-251): > 100 µM (inactive)
GI50 (NCI-H522): > 100 µM (inactive)
GI50 (A498): > 100 µM (inactive)
GI50 (UACC-62): > 100 µM (inactive)
GI50 (COLO 205): > 100 µM (inactive)
GI50 (HL-60): > 100 µM (inactive)
GI50 (RXF 393): > 100 µM (inactive)
GI50 (OVCAR-4): > 100 µM (inactive)
GI50 (CAKI-1): > 100 µM (inactive)
GI50 (SF-268): > 100 µM (inactive)
GI50 (UACC-257): > 100 µM (inactive)
GI50 (SF-539): > 100 µM (inactive)
GI50 (SK-MEL-2): > 100 µM (inactive)

CC(C)N(C(=O)C12C3C4C1(I)C1C2C3(I)C41C(=O)N(C(C)C)C(C)C)C(C)C (stereo not drawn)
GI50 (HT-29): > 100 µM (inactive)
GI50 (HCT-15): > 43.3 µM
GI50 (U-251): > 71 µM (inactive)
GI50 (NCI-H522): > 75.9 µM (inactive)
GI50 (A498): > 100 µM (inactive)
GI50 (UACC-62): > 100 µM (inactive)
GI50 (COLO 205): > 57.3 µM (inactive)
GI50 (HL-60): > 44.9 µM (inactive)
GI50 (RXF 393): > 100 µM (inactive)
GI50 (OVCAR-4): > 58.5 µM (inactive)
GI50 (CAKI-1): > 100 µM (inactive)
GI50 (SF-268): > 100 µM (inactive)
GI50 (UACC-257): > 100 µM (inactive)
GI50 (SF-539): > 43.9 µM (inactive)
GI50 (SK-MEL-2): > 100 µM (inactive)

Nc1nc(=O)c(/N=N/c2ccccc2)c(N)[nH]1
GI50 (HT-29): 28.4 µM (inactive)
GI50 (HCT-15): 30.5 µM
GI50 (U-251): 14.4 µM (inactive)
GI50 (NCI-H522): 47.4 µM (inactive)
GI50 (A498): 45.2 µM (inactive)
GI50 (UACC-62): 18.6 µM (inactive)
GI50 (COLO 205): 65 µM (inactive)
GI50 (HL-60): 28.1 µM (inactive)
GI50 (OVCAR-4): > 100 µM (inactive)
GI50 (CAKI-1): 66.7 µM (inactive)
GI50 (SF-268): 28.1 µM (inactive)
GI50 (UACC-257): 56.9 µM (inactive)
GI50 (SF-539): 26.4 µM (inactive)
GI50 (SK-MEL-2): 39.2 µM (inactive)

CCCNC(=O)C(C)(Cl)C(=O)c1ccccc1O (stereo not drawn)
GI50 (HCT-15): > 100 µM
GI50 (U-251): > 100 µM (inactive)
GI50 (NCI-H522): > 100 µM (inactive)
GI50 (A498): > 100 µM (inactive)
GI50 (UACC-62): > 100 µM (inactive)
GI50 (COLO 205): > 100 µM (inactive)
GI50 (HL-60): > 100 µM (inactive)
GI50 (RXF 393): > 100 µM (inactive)
GI50 (OVCAR-4): > 100 µM (inactive)
GI50 (CAKI-1): > 100 µM (inactive)
GI50 (SF-268): > 100 µM (inactive)
GI50 (UACC-257): > 100 µM (inactive)
GI50 (SF-539): > 100 µM (inactive)
GI50 (SK-MEL-2): > 100 µM (inactive)
